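Interpolation was linear, between the two tested concentrations surrounding the appropriate level; five concentrations were tested over 48 hours in 96-well plates. GI50 = concentration required for 50% inhibition of growth.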 Active and inactive are the calls of the source. Cut-off read from the data, not from the text of the source: active = GI50 up to about 1.1 µM and inactive = higher.
Experiments:
Experiment in all cases: DTP human tumour cell line panel, 48 h
[1] = test system: A549
[2] = test system: UACC-62
[3] = test system: SR
[4] = test system: Hs-578T
[5] = test system: HOP-62
[6] = test system: SF-539
[7] = test system: PC-3
[8] = test system: U-251
[9] = test system: K562
[10] = test system: HCC 2998
[11] = test system: A498
[12] = test system: MOLT-4
[13] = test system: MCF7
[14] = test system: SK-MEL-2
[15] = test system: LOX IMVI
[16] = test system: BT-549
[17] = test system: SK-MEL-28
[18] = test system: UO-31
[19] = test system: MDA-MB-231
[20] = test system: HL-60

Measured: GI50

COC(OC)C1OCC(n2cc(F)c(=O)[nH]c2=O)C1O (stereo not drawn)
inactive: [1] > 100 µM | [2] > 100 µM | [3] > 100 µM | [4] > 100 µM | [5] > 100 µM | [6] > 100 µM | [7] > 100 µM | [8] > 100 µM | [9] > 100 µM | [10] > 100 µM | [11] > 100 µM | [12] > 100 µM | [13] > 100 µM | [14] > 100 µM | [15] > 100 µM | [16] > 100 µM | [17] > 100 µM | [18] > 100 µM | [19] > 100 µM

COc1cccc(/C=C2\N=C(c3ccccc3)OC2=O)c1
inactive: [1] > 100 µM | [2] > 100 µM | [3] 23.1 µM | [4] 22.5 µM | [5] 61.1 µM | [6] 43.1 µM | [7] > 100 µM | [8] 63.7 µM | [9] 71.1 µM | [10] 49.7 µM | [13] > 100 µM | [14] 56.1 µM | [15] 26.4 µM | [16] 40.6 µM | [17] > 100 µM | [18] > 100 µM | [19] > 100 µM | [20] 10.7 µM

N=C(N)NS(=O)(=O)c1ccc(/N=N/c2c(O)c(C(=O)O)cc3ccccc23)cc1
inactive: [1] > 100 µM | [2] > 100 µM | [3] > 100 µM | [4] > 100 µM | [5] > 100 µM | [6] > 100 µM | [7] > 100 µM | [8] > 100 µM | [9] > 100 µM | [10] > 100 µM | [12] > 100 µM | [13] > 100 µM | [14] > 100 µM | [16] > 100 µM | [17] > 100 µM | [18] > 100 µM | [19] 47.4 µM | [20] > 100 µM

CCC(CCN)(CCN)[N+](=O)[O-]
inactive: [1] > 100 µM | [2] > 100 µM | [3] > 100 µM | [4] > 100 µM | [6] > 100 µM | [7] > 100 µM | [8] > 100 µM | [9] > 100 µM | [12] > 100 µM | [13] > 100 µM | [14] > 100 µM | [16] > 100 µM | [19] > 100 µM | [20] > 100 µM

O=C(O)C1C(C(=O)O)C(C(=O)O)C1C(=O)O (stereo not drawn)
inactive: [1] > 100 µM | [2] > 100 µM | [3] 28.9 µM | [4] > 100 µM | [5] > 100 µM | [6] > 100 µM | [7] > 100 µM | [8] > 100 µM | [9] > 100 µM | [11] > 100 µM | [12] > 100 µM | [13] > 100 µM | [14] > 100 µM | [15] > 100 µM | [16] > 100 µM | [17] > 100 µM | [18] > 100 µM | [19] > 100 µM

COc1ccc(N2C(=O)CS(=O)(=O)C2c2cccc(Oc3ccccc3)c2)cc1 (stereo not drawn)
inactive: [1] 6.58 µM | [2] 2.21 µM | [3] 1.92 µM | [4] 3.78 µM | [5] 7.53 µM | [6] 3.54 µM | [7] 3.65 µM | [8] 4.66 µM | [9] 1.71 µM | [12] 3.5 µM | [13] 1.87 µM | [14] 3.56 µM | [15] 4.4 µM | [16] 7.74 µM | [17] 16.2 µM | [18] 7.18 µM | [19] 2.69 µM | [20] 3.32 µM

NNc1ccccc1Cl
inactive: [1] > 100 µM | [2] 23.4 µM | [4] > 100 µM | [5] > 100 µM | [6] > 100 µM | [7] 69.2 µM | [8] 48.4 µM | [9] 4.34 µM | [10] > 100 µM | [11] > 100 µM | [12] 36.2 µM | [13] > 100 µM | [14] > 100 µM | [15] > 100 µM | [16] > 100 µM | [17] > 100 µM | [18] 89.1 µM | [19] > 100 µM | [20] 2.88 µM

C=CC(c1ccccc1)C1(O)c2cccc(O)c2C(=O)c2c(O)cccc21 (stereo not drawn)
inactive: [1] 14.7 µM | [3] 5.89 µM | [4] 15.8 µM | [5] 17.3 µM | [6] 29.3 µM | [7] 13.9 µM | [8] 11.7 µM | [9] 6.64 µM | [10] 10.8 µM | [11] 19.6 µM | [12] 11.9 µM | [13] 17.1 µM | [14] 12.4 µM | [15] 16.4 µM | [16] 16.7 µM | [17] 18.8 µM | [18] 19.8 µM | [19] 18.3 µM

CCN1C2=NCCN2S(=O)(=O)c2ccccc21
inactive: [1] > 100 µM | [2] > 100 µM | [4] > 100 µM | [5] > 100 µM | [6] > 100 µM | [7] > 100 µM | [8] > 100 µM | [9] > 100 µM | [10] > 100 µM | [11] > 100 µM | [12] > 100 µM | [13] > 100 µM | [14] > 100 µM | [15] > 100 µM | [16] > 100 µM | [17] > 100 µM | [18] > 100 µM | [19] > 100 µM | [20] > 100 µM

Cn1ccnc1CC(C)(O)c1ccccc1 (stereo not drawn)
inactive: [1] > 100 µM | [2] > 100 µM | [3] > 100 µM | [4] > 100 µM | [5] > 100 µM | [6] > 100 µM | [7] > 100 µM | [8] > 100 µM | [9] > 100 µM | [10] > 100 µM | [11] > 100 µM | [13] > 100 µM | [14] > 100 µM | [15] > 100 µM | [16] > 100 µM | [17] > 100 µM | [18] > 100 µM | [19] > 100 µM

S=C(S)NCC1CCC(CNC(=S)S)CC1 (stereo not drawn)
inactive: [1] > 100 µM | [2] 34.4 µM | [4] > 100 µM | [5] 20.7 µM | [6] 38.5 µM | [7] 17.8 µM | [8] 20.1 µM | [9] 14.2 µM | [10] 20.4 µM | [11] > 100 µM | [12] 29.2 µM | [13] 17.9 µM | [14] 23.3 µM | [15] 18.8 µM | [16] 44.1 µM | [17] 56.2 µM | [18] 30.9 µM | [19] 29.2 µM | [20] 48.9 µM
